From patent publication EP0451791A2, “Long acting liposome compositions containing peptid drugs and method for their preparation” (HOECHST AKTIENGESELLSCHAFT, priority 1990, dated 1991)

Test system: weiblicher Ratten
Assay: Cycle (oestrus) suppression in female rats after s.c. injection, weekly vaginal smear (Beispiel 2)
Assay type: in vivo
Conditions: HOE 013 solution 60 μg daily, liposomes single dose 3200 μg HOE 013
Protocol: 2 x 1 ml der Liposomen (entspr. einer Einmalgabe von 3200 µg HOE 013) aus Beispiel 1 werden subkutan weiblichen Ratten von ca. 200 g Körpergewicht injiziert. Als Kontrolle dient eine gleiche Testgruppe von Tieren, die nur Lösungsmittel (Kochsalzlösung) erhält (Placebo) und eine Gruppe von Tieren, die mit täglichen Gaben von LHRH-Antagonist-Lösung (60 µg) (in 5 %iger Mannitlösung) behandelt wird. Die Östrussuppression der Tiere wird durch wöchentlichen Östrusabstrich überprüft. Am Tag 35 wird die Konzentration von HOE 013 im Urin gemessen und die 24 h-Ausscheidung berechnet.
Die Ergebnisse (s. Tabelle 1) zeigen, daß die Tiere der Liposomengruppe im Gegensatz zu den beiden Kontrollgruppen nach 35 Tagen noch deutlich supprimiert sind. Die Exkretionsrate am Tag 35 (4,5 µg) belegt eine signifikante Ausscheidung des Antagonisten im Falle der Liposomenpräparation. Diese Exkretionsrate ist mit der Plasmakonzentration eng korreliert.

Measured: Ratten mit Zuyklussuppression/ Ratten pro Gruppe

Ac-D-Nal-p-Cl-D-Phe-D-Trp-Ser Tyr-D-Ser (α-L-Rha)-Leu-Arg-Pro-Azagly-NH₂ [HOE 013]
0/11: Tag 1 of vaginal cytology | Tag 7 of vaginal cytology | Tag 14 of vaginal cytology | Tag 21 of vaginal cytology | Tag 28 of vaginal cytology | Tag 35 of vaginal cytology
